Reference: US7807828B2, “Olanzapine analogs and methods of use thereof” (Hypnion, Inc., priority 2005, dated 2010)
“And” between values parts separate entries of the source, which are not always exact repeats. Equal entries are not always repeated.

How the values were obtained:
[1] = target: T1, human recombinant M1 expressed in CHO cells (Homo sapiens, UniProt P11229); assay: M1 muscarinic receptor binding assay; settings: Table 7A, first line of column M1 M2 M3
T1 construct: purchased PerkinElmer, Inc., Wellesley, Mass; host or cells: CHO cells
T1 sequence (P11229 1-460): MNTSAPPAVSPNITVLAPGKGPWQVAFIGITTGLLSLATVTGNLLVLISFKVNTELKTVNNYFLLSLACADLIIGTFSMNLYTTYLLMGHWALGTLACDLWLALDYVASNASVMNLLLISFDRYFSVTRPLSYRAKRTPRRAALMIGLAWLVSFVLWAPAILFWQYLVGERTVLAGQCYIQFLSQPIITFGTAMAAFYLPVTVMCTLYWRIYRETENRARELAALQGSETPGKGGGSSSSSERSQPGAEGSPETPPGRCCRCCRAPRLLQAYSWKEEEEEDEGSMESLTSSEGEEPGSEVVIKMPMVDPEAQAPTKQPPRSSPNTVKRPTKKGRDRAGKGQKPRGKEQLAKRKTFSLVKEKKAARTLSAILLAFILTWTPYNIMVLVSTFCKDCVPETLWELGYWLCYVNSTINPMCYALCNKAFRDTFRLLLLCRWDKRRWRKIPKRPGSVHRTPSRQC

[2] = target: D1 (h) (Homo sapiens, UniProt P21728); assay: Dopamine D1 (human recombinant) binding assay; settings: Table 7A; unit inferred
D1 (h), sequence (P21728 whole entry): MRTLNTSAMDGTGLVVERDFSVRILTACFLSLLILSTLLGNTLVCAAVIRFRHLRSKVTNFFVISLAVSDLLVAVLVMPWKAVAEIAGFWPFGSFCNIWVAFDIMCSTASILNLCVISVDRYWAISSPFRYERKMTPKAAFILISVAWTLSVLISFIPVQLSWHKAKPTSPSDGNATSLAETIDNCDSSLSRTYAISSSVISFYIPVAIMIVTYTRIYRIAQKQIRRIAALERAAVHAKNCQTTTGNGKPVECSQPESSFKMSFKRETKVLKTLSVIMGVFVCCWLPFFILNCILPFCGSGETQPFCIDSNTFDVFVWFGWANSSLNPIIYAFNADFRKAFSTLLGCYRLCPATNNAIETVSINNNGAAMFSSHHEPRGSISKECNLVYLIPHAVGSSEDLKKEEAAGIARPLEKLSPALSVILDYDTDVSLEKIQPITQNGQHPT
Method: Dopamine, D1 (human recombinant) binding assay was performed according to published procedures. See, e.g., Jarvie, et al. J. Recept Res., 13(1-4): 573-90 (1993); and Billard, et al. Life Sciences, 35(18): 1885-93 (1984), with modifications

[3] = target: 5HT2b (h) (Homo sapiens, UniProt P41595); assay: 5HT2b (h) binding assay; settings: Table 7B; unit inferred
5HT2b (h), sequence (P41595 whole entry): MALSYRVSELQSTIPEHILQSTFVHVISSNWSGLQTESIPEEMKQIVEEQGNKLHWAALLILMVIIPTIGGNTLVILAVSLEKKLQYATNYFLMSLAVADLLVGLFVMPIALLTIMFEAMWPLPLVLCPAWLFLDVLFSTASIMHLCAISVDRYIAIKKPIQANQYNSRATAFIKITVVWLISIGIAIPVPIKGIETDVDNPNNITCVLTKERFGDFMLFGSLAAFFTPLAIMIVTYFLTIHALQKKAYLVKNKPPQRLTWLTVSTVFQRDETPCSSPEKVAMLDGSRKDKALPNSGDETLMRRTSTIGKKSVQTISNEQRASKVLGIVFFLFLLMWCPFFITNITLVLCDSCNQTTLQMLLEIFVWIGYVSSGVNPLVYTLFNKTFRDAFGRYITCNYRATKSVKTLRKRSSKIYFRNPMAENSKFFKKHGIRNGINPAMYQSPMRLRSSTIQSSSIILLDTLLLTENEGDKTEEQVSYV

[4] = target: H1 (rat) (Rattus norvegicus, UniProt P31390); assay: H1 (rat) competitive binding assay; settings: Table 7A; Ki in nM
H1 (rat), sequence (P31390 whole entry): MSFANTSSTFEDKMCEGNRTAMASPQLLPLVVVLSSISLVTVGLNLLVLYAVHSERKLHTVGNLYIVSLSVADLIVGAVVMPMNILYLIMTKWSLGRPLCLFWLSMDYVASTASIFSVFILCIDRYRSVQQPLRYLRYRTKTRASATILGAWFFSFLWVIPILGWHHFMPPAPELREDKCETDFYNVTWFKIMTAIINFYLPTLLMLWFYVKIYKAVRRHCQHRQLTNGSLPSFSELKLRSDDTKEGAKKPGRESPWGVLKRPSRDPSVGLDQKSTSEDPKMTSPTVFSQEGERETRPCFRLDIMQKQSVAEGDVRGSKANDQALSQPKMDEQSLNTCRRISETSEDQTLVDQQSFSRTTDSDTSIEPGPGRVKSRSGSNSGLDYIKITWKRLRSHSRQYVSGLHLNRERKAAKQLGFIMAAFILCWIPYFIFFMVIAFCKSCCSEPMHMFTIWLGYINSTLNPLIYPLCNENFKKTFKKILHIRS
Method: (§1) Binding assays were performed using various sleep-inducing agents and derivatives selected from those listed in Table 1 in competitive binding assays with known standards for the H1 histamine receptor, and the M1, M2, and M3 muscarinic receptors, alpha 1 and alpha 2 receptors, D1 and D2 receptors, 5HT2a, 5HT2b, 5HT2c, 5HT2c, and 5HT7 receptors.
(§2) The histamine H1 assays are described in Chang, et al., Heterogeneity of Histamine H1-Receptors: Species Variation in [^3H]Mepyramine Binding of Brain Membranes. Journal of Neurochemistry. 32: 1653-1663 (1979); Martinez-Mir, M. I., Pollard, H., Moreau, J., et al. Three Histamine Receptors (H1, H2, and H3) Visualized in the Brain of Human and Non-Human Primates. Brain Res. 526: 322-327 (1990); Haaksma, E. E. J., Leurs, R. and Timmerman, H. Histamine Receptors: Subclasses and Specific Ligands. Pharmac. Ther. 47: 73-104 (1990). The muscarinic assays are described in Buckley, N. J., Bonner, T. I., Buckley, C. M., and Brann, M. R. Antagonist Binding Properties of Five Cloned Muscarinic Receptors Expressed in CHO-K1 Cells. Mol. Pharmacol. 35: 469-476 (1989). The assays were performed according to the preceding articles, with the following modifications. Chemical reagents in the following were obtained from Sigma, St. Louis, Mo.

[5] = target: 5HT2a (h R) (Homo sapiens, UniProt P28223); assay: 5HT2a (h R) binding assay; settings: Table 7B; unit inferred
5HT2a (h R), sequence (P28223 whole entry): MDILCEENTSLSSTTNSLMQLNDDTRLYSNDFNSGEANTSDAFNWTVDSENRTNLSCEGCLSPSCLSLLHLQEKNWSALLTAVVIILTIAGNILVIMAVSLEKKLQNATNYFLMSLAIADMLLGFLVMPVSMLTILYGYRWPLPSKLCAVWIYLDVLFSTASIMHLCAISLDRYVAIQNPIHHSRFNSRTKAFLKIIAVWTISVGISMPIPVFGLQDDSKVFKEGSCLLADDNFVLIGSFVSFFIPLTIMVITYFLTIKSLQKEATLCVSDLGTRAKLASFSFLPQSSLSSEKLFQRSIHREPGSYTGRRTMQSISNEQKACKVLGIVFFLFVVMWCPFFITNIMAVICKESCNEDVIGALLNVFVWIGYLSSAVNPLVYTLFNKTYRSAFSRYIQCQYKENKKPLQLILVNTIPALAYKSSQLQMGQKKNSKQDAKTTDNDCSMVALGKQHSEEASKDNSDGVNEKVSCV
Method: as §1
(§3) In vitro binding assays are used to determine 5HT2a binding. These binding assays measure the ability of benzisoxazole analogs to displace known standards from the 5HT2a, 5HT2b, 5HT2c, and 5HT7. A decrease in the binding of the compounds to the M1-M3 receptors, relative to the binding of the compound to the 5HT2a receptor, is an indication of the greater specificity of the compound for the 5HT2a receptor over the muscarinic receptor. […] 5HT2a binding is determined as described for example in British Journal of Pharmacology (1995) 115, 622-628.

[6] = target: T2, H1 (hr) (Homo sapiens, UniProt P35367); assay: H1 (hr) Cerep binding assay; settings: Table 7A; Ki in nM
T2 construct: Novascreen, MDS, Cerep (assay providers)
T2 sequence (P35367 whole entry): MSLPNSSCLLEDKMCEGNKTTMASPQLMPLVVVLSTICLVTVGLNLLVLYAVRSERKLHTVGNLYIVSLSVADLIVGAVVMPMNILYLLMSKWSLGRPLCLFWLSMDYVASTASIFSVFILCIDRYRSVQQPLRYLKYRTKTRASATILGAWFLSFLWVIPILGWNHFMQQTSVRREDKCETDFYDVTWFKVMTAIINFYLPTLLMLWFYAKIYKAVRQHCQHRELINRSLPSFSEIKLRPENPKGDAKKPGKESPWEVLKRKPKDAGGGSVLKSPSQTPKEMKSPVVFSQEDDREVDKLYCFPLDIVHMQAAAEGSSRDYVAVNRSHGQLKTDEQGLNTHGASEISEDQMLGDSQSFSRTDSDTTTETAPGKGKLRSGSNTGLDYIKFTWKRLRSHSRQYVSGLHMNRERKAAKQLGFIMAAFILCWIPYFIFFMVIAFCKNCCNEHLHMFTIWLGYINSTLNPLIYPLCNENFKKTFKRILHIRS
Method: as §1, §2

[7] = target: 5HT2a (rat) (Rattus norvegicus, UniProt P14842); assay: 5HT2a (rat) binding assay; settings: Table 7A; unit inferred
5HT2a (rat), sequence (P14842 whole entry): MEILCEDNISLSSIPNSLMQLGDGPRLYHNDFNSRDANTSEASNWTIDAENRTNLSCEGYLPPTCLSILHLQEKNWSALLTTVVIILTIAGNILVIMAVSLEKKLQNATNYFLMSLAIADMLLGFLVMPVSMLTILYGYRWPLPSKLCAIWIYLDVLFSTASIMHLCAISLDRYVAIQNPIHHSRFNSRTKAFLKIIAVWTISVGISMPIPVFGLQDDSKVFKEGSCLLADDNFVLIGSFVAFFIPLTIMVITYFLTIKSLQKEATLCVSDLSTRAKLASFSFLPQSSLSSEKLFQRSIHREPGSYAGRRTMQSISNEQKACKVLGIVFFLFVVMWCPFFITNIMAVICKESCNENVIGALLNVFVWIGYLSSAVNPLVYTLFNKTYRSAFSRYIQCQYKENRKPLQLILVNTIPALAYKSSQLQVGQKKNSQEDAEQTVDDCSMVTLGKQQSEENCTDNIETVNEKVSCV

[8] = target: T2, H1 (hr); assay: H1 (hr) MDS binding assay; settings: Table 7A; Ki in nM
Method: as §1, §2

[9] = target: 5HT7 (h) (Homo sapiens, UniProt P34969); assay: 5HT7 (h) binding assay; settings: Table 7B; unit inferred
5HT7 (h), sequence (P34969 whole entry): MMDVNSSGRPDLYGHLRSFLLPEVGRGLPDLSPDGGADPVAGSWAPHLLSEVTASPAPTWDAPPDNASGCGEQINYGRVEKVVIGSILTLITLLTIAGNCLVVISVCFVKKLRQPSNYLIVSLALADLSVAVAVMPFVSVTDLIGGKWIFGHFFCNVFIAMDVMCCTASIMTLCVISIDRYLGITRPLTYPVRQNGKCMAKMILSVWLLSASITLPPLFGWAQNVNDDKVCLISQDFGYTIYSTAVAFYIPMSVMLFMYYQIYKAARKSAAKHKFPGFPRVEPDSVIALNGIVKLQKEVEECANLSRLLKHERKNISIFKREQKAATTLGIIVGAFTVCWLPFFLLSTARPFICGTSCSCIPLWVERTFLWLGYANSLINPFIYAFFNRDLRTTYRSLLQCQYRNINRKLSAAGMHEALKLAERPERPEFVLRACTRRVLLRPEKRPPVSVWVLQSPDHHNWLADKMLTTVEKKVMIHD
Method: as §1, §3

[10] = target: T3, Alpha 1B (h) (Homo sapiens, UniProt P35368); assay: Alpha 1B (h) binding assay; settings: Table 7A; unit inferred
T3 sequence (P35368 1-520): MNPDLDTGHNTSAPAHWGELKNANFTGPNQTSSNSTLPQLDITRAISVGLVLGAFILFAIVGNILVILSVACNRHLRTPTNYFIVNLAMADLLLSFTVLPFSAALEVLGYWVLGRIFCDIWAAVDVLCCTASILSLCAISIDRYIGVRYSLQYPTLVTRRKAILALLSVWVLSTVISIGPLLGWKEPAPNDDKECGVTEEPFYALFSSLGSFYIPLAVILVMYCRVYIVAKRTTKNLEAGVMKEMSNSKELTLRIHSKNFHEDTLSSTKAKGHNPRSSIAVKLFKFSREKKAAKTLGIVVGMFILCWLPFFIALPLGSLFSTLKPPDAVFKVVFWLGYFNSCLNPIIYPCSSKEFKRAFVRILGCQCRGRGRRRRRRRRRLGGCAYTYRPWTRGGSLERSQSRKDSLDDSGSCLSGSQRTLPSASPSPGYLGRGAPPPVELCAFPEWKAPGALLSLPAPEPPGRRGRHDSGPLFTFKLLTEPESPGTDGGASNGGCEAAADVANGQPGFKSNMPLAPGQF
Method: as §1

[11] = target: D3 (Homo sapiens, UniProt P35462); assay: D3 binding; settings: Table 7A, printed in column D2 (h); unit inferred
D3, sequence (P35462 whole entry): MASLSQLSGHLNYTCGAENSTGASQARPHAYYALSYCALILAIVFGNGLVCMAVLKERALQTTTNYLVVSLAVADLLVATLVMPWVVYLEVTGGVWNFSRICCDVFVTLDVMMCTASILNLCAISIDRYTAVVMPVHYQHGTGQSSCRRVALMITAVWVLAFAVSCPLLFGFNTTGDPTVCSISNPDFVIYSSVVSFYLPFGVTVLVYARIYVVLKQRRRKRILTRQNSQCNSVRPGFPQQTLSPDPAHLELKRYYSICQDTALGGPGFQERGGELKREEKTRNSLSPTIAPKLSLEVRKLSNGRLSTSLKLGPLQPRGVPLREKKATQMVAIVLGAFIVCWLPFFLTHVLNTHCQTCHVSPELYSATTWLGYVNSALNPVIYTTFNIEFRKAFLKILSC

[12] = target: Alpha 1; assay: Alpha 1 binding assay; settings: Table 7A; unit inferred
Method: as §1

| Structure (SMILES) | Ki [1] [nM] | Ki [2] [nM] | Ki [3] | Ki [4] [nM] | Ki [5] [nM] | Ki [6] [nM] | Ki [7] [nM] | Ki [8] [nM] | Ki [9] [nM] | Ki [10] [nM] | Ki [11] [nM] | Ki [12] [nM] |
| --- | --- | --- | --- | --- | --- | --- | --- | --- | --- | --- | --- | --- |
| Cc1cc2c(s1)Nc1ccccc1N=C2N1CCN(CC(C)(C)C(=O)O)CC1 [Compound 46] | > 10000 | 1550 | 151 nM and 270 nM | 34 | 200 | 210 | 14.5 | 44 | 4080 | 2100 | – | – |
| CCc1cc2c(s1)Nc1ccccc1N=C2N1CCN(CC(C)(C)C(=O)O)CC1 [Compound 90] | > 10000 | 565 | – | 55.5 | – | – | 10.4 | – | – | – | 226 | – |
| Cc1cc2c(s1)Nc1ccccc1N=C2N1CCN(CC2(C(=O)O)CC2)CC1 [Compound 91] | > 10000 | 278 | – | 53 | – | – | 13.3 | – | – | – | – | 1960 |
| Cc1cc2c(s1)Nc1ccccc1N=C2N1CCN(CCC(=O)O)CC1 [Compound 92] | > 10000 | 129 | – | 95.6 | – | – | 60.7 | – | – | – | – | 2060 |
| CC(C)c1cc2c(s1)Nc1ccccc1N=C2N1CCN(CC(C)(C)C(=O)O)CC1 [Compound 94] | > 10000 | 300 | – | 110 | – | – | 8.2 | – | – | – | – | – |
